Measured values taken from publication PMC11207729, “Unveiling Anticancer Potential of COX-2 and 5-LOX Inhibitors: Cytotoxicity, Radiosensitization Potential and Antimigratory Activity against Colorectal and Pancreatic Carcinoma” (Pharmaceutics, 2024).
Values joined by “and” are separate entries in the source; they are usually repeats but may differ in a detail not shown here. Identical values can stand only once. “Also recorded” adds a separate entry of the source.

Key:
[1] = in vivo; details: in vivo
Experimental: (§1) Wild-type (AB) zebrafish embryos, kindly provided by Dr. Ana Cvejić (Wellcome Trust Sanger Institute, Cambridge, UK), were raised to adult stage in a temperature- and light-controlled zebrafish facility at 28 °C and a standard 14:10 h light–dark photoperiod. Fish were fed with commercial dry food (SDS200 and SDS300 granular food; Special Diet Services, Essex; UK and TetraMinTM flakes; Tetra Melle, Germany) twice a day, and with Artemia nauplii daily.
(§2) Embryos produced by pairwise mating were washed to remove debris, distributed at 10 per well into 24-well plates containing 1 mL of E3 medium (5 mM NaCl, 0.17 mM KCl, 0.33 mM CaCl2 and 0.33 mM MgSO4 in distilled water) and maintained at 28 °C. […] Dead embryos were recorded and discarded every 24 h. […] Experiments were performed in triplicate using 30 embryos for each concentration. At 120 hpf, embryos were anesthetized by the addition of 0.1% (w/v) tricaine solution (Sigma-Aldrich, St. Louis, MO, USA), photographed, and killed by freezing at −20 °C for ≥24 h.

[2] = tested on: zebrafish (Danio rerio) embryos; test: in vivo; details: embryos exposed for five days, up to 50 µM; cardiotoxicity, hepatotoxicity, malformations
Experimental: as §1, §2

[3] = tested on: BxPC-3 cells; test: SRB assay, compound plus γ-radiation, BxPC-3; assay type: cell-based, human; details: IC50 concentration 24 h before 2 Gy γ-radiation, SRB 72 h after irradiation
Experimental: (§3) In the experiments involving irradiation, cells were irradiated at room temperature, in the vertical position with the cell monolayer facing ^60Co γ-rays (CIRUS-Cis Biointernational). The irradiation of samples was performed in Vinča Institute of Nuclear Sciences, Belgrade, Serbia. In all experiments, a clinically relevant radiation dose of 2 Gy with the dose rate of ~1 Gy/min was applied.
(§4) For the evaluation of cell viability after treatments with radiation as well as after combined treatments, a sulforhodamine B (SRB) protein binding assay was used. This assay is based on the staining of cellular proteins. Maintaining conditions were identical to that of MTT assay. The cells were pretreated with IC50 concentrations of tested compounds for 24 h before irradiations. Following the 72 h post-irradiation incubation time under standard conditions (5% CO2, 37 °C) cells were fixed by protein precipitation with 10% trichloroacetic acid (TCA) at 4 °C for 1 h. Plates were rinsed with distillated water and stained with 0.4% SRB (Sigma-Aldrich Chemie GmbH, Steinheim, Germany) in 1% acetic acid, for 15 min at room temperature. Excess stain was removed by washing the wells in 1% acetic acid. […] The absorbance of each well was measured using a microplate reader (Wallac VICTOR2 1420 Multilabel counter, PerkinElmer, Turku, Finland) at a test wavelength of 550 nm.

[4] = tested on: BxPC-3 cells; test: MTT cytotoxicity assay, BxPC-3; assay type: cell-based, human; details: for IC50: Homo sapiens, BXPC-3, 72 h, MTT, 72 h after treatment, mean ± SEM; for Selectivity index (IC50 normal cell line/IC50 cancer cell lines), BxPC-3: MRC-5 / BxPC-3, in brackets
Experimental: (§5) SW620 cells were cultured in Dulbecco’s Modified Eagle’s medium (DMEM, Sigma-Aldrich Chemie GmbH, Steinheim, Germany) and supplemented in the same manner as the previously mentioned cell lines. Cells were grown in cell culture flasks T25 (Sarstedt AG & Co., Nümbrecht, Germany) at appropriate cell densities in the culture medium prior to exposure to treatments. Stock solutions of each compound, prepared in DMSO, were diluted in the culture medium to obtain the appropriate final concentrations.
(§6) The viability of the control and cells treated with the tested compounds was determined by MTT assay. Cells were seeded in 96-well plates at a density of 2000 cells/well, allowed to attach overnight, and then treated with rising concentrations of testing compounds. The ability of viable cells to reduce 3-(4,5-dimethylthiazol-2-yl)-2,5-diphenyltetrazolium bromide into blue-purple formazan crystals, was measured 72 h after the treatments. Namely, l mg/mL of MTT reagent (Sigma-Aldrich Chemie GmbH, Steinheim, Germany) was added to each well and incubated for an additional 4 h. Finally, upon removal of the medium containing MTT, 200 µL of DMSO was added to each well.

[5] = tested on: MRC-5 cells; test: MTT cytotoxicity assay, MRC-5 normal fibroblasts; assay type: cell-based, human; details: Homo sapiens, MRC5, 72 h, MTT, 72 h after treatment, mean ± SEM; healthy cell line
[6] = tested on: SW620 cells; test: Cytotoxicity in SW620 cells after 24 h treatment (Table S2); assay type: cell-based; details: Homo sapiens, SW-620, read-out: IC50 (µM) following 24h treatment in SW620 cells
[7] = tested on: HCT 116 cells; test: MTT cytotoxicity assay, HCT 116; assay type: cell-based, human; details: for IC50: Homo sapiens, HCT-116, MTT, 72 h after treatment, mean ± SEM; for Selectivity index (IC50 normal cell line/IC50 cancer cell lines), HCT 116: MRC-5 / HCT 116, in brackets
Experimental: as §5, §6

[8] = tested on: HCT 116 cells; test: SRB assay, compound plus γ-radiation, HCT 116; assay type: cell-based, human; details: IC50 concentration 24 h before 2 Gy γ-radiation, SRB 72 h after irradiation
Experimental: as §4, with “In the experiments involving irradiation, cells were irradiated at room temperature, in the vertical position with the cell monolayer facing ^60Co γ-rays (CIRUS-Cis Biointernational). The irradiation of samples was performed in Vinča Institute of Nuclear Sciences, Belgrade, Serbia. In all experiments, a clinically relevant radiation dose of 2 Gy with the dose rate of ~1 Gy/min was applied. For” for “For”

[9] = tested on: HT-29 cells; test: MTT cytotoxicity assay, HT-29; assay type: cell-based, human; details: for IC50: Homo sapiens, HT-29, MTT, 72 h after treatment, mean ± SEM; for Selectivity index (IC50 normal cell line/IC50 cancer cell lines), HT-29: MRC-5 / HT-29, in brackets
Experimental: as §5, §6

[10] = tested on: SW620 cells; test: Wound-healing assay; assay type: cell-based, human; details: 25 μM
Experimental: The migratory potential of SW620 cells (human colon carcinoma cell line) was evaluated by a wound-healing assay. Cells were seeded in density of 300,000 cells per well in 24-well tissue culture microplates and grown for 24 h in DMEM medium supplemented with 10% FBS, penicillin/streptomycin and L-glutamine at 37 °C in a humidified atmosphere containing 5% CO2. Upon reaching confluence, a uniform wound was scratched into a monolayer of each well with a sterile plastic 200 μL micropipette tip. After wounding, the medium was replaced and cells were further treated with 25 μM of compounds 1, 2, 3, and 5 for 24 h and 48 h. Wound closure was monitored by imaging cells at 4× magnification using the ImageXpress® Pico Automated Cell Imaging System (Molecular Devices®, San Jose, CA, USA) immediately (T0), and at 24 h (T24) and 48 h (T48) after wounding. The captured images were analyzed by ImageJ software v. 1.52p (U.S. National Institutes of Health, Bethesda, MD, USA) to measure the degree of closure of the wounded area. Independent experiments were performed three times.

[11] = tested on: COX-2; design: method as in PMID 37111306; details: cited from earlier work
[12] = tested on: HT-29 cells; test: SRB assay, compound plus γ-radiation, HT-29; assay type: cell-based, human; details: IC50 concentration 24 h before 2 Gy γ-radiation, SRB 72 h after irradiation
Experimental: as §3
For the evaluation of cell viability after treatments with radiation as well as after combined treatments, a sulforhodamine B (SRB) protein binding assay was used. This assay is based on the staining of cellular proteins. Maintaining conditions were identical to that of MTT assay. The cells were pretreated with IC50 concentrations of tested compounds for 24 h before irradiations. Following the 72 h post-irradiation incubation time under standard conditions (5% CO2, 37 °C) cells were fixed by protein precipitation with 10% trichloroacetic acid (TCA) at 4 °C for 1 h. Plates were rinsed with distillated water and stained with 0.4% SRB (Sigma-Aldrich Chemie GmbH, Steinheim, Germany) in 1% acetic acid, for 15 min at room temperature. Excess stain was removed by washing the wells in 1% acetic acid. After being rinsed, microwell plates were air dried until no staining moisture was visible. Bound dye was dissolved in 10 mM unbuffered Tris base (pH 10.5) for 5 min on a gyratory shaker. The absorbance of each well was measured using a microplate reader (Wallac VICTOR2 1420 Multilabel counter, PerkinElmer, Turku, Finland) at a test wavelength of 550 nm.

[13] = tested on: 5-LOX; design: method as in PMID 37111306; details: cited from earlier work

SMILES | LC50 [1] [µM] | toxic response / adverse side effects in embryos [2] | cell proliferation, combined treatment versus radiation alone, BxPC-3 [3] | IC50 [4] [µM] | Selectivity index (IC50 normal cell line/IC50 cancer cell lines), BxPC-3 [4] | IC50 [5] [µM] | IC50 [6] [µM] | IC50 [7] [µM] | Selectivity index (IC50 normal cell line/IC50 cancer cell lines), HCT 116 [7] | cell proliferation, combined treatment versus radiation alone, HCT 116 [8] | IC50 [9] [µM] | Selectivity index (IC50 normal cell line/IC50 cancer cell lines), HT-29 [9] | Relative Wound Closure (%) 24 h ([10]; SW620, 24 h relative to T0, mean ± SEM, control 17.87 ± 3.48) | Relative Wound Closure (%) 48 h ([10]; SW620, 48 h relative to T0, mean ± SEM, control 24.51 ± 1.39) | IC50 [11] [µM] | cell proliferation, combined treatment versus radiation alone, HT-29 [12] | IC50 [13] [µM]
O=C(NO)NCc1ccccc1Nc1c(Cl)cccc1Cl [Compound 3] | > 50 | did not elicit a toxic response; also recorded: no adverse side effects | significant change in cell inactivation | 34.3 ± 1.79 | > 2.91 | > 100 | 169 ± 5.7 | 40.8 ± 1.95 | > 2.45 | lower in comparison to cells that were only irradiated | 64.6 ± 3.41 | > 1.55 | 3.86% and 3.86 ± 0.19% | 7.68% and 7.68 ± 2.99% |  |  | 
C=CCNC(=O)c1cc(C(C)(C)C)c(O)c(C(C)(C)C)c1 [Compound 6] |  |  | statistically significant change with respect to radiation | 8.63 ± 0.77 | > 11.59 | > 100 |  | 23 ± 3.27 | > 4.35 |  | 24.8 ± 5.4 | > 4.04 |  |  | 6.89 | statistically significant change with respect to radiation | 
C#CCNC(=O)c1cc(C(C)(C)C)c(O)c(C(C)(C)C)c1 [Compound 7] |  |  |  | 29.2 ± 1.56 | > 3.42 | > 100 |  | 30.2 ± 5.07 | > 3.31 |  | > 100 |  |  |  |  | significantly inactivated HT-29 cells | 12.6
